Measurements from US6875760B2 (Novo Nordisk A/S, priority 1999, dated 2005).

Target: T1, human glucagon receptor (Homo sapiens, UniProt P47871)
T1 construct: expressed in transfected cells; host or cells: BHK (baby hamster kidney) cells
Test: Glucagon Binding Assay (III)
Conditions: BHK cell membranes, WGA SPA beads, 125I-glucagon; read-out: Glu Bd Assay (III) IC50
Procedure, shortened: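 Membranes from BHK cells transfected with the human receptor, prepared at 4 °C, were used in a WGA-bead scintillation proximity binding format. Plates were shaken for 4 hours, left to settle 8–48 hours and then counted. Non-specific binding was defined with 500 nM glucagon.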

T1 sequence (P47871 26-477): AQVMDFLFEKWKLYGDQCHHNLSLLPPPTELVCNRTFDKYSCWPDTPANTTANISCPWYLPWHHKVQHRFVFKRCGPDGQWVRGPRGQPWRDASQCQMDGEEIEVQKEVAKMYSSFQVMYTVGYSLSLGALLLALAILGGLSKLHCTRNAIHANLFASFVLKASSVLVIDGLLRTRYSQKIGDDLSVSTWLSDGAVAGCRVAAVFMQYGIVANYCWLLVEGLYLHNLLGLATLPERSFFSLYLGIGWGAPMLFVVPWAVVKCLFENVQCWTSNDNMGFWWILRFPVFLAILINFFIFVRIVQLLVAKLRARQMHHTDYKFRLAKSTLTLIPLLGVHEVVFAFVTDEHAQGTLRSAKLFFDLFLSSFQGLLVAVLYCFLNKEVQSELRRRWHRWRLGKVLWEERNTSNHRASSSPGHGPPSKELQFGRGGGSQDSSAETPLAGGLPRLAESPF

| SMILES | IC50 |
| --- | --- |
| CCCCOc1ccc(NC(=O)N(Cc2ccc(C(=O)Nc3nn[nH]n3)cc2)c2ccc(C(C)(C)C)cc2)cc1S(C)(=O)=O [Example 367, 4-[3-(4-Butoxy-3-methylsulfonylphenyl)-1-(4-tert-butylphenyl)ureidomethyl]-N-(2H-tetrazol-5-yl)benzamide] | 34 nM |
| CS(=O)(=O)c1ccccc1NC(=O)N(Cc1ccc(C(=O)Nc2nn[nH]n2)cc1)c1ccc(C2CCCCC2)cc1 [Example 466, 4-[1-(4-Cyclohexylphenyl)-3-(2-methylsulfonylphenyl)ureidomethyl]-N-(2H-tetrazol-5-yl)benzamide] | 2670 nM |
| O=C(Nc1nn[nH]n1)c1ccc(CN(C(=O)NCc2cc(Cl)cc(Cl)c2)c2ccc(C3CCCCC3)cc2)cc1 [Example 397, 4-[1-(4-Cyclohexylphenyl)-3-(3,5-dichlorobenzyl)ureidomethyl]-N-(2H-tetrazol-5-yl)benzamide] | 120 nM |
| CC(C)(C)C1CCC(N(Cc2ccc(C(=O)NCCC(=O)O)cc2)C(=O)Cc2ccc(OC(F)(F)F)cc2)CC1 (stereo not drawn) [Example 506, 3-[4-({(4-tert-Butylcyclohexyl)-[2-(4-trifluoromethoxyphenyl)acetyl]amino}methyl)benzoylamino]propionic acid] | 108 nM |
| O=C(Nc1nn[nH]n1)c1ccc(CN(C(=O)CCOc2ccccc2)c2ccc(C3CCCCC3)cc2)cc1 [Example 533, 4-{[(4-Cyclohexylphenyl)-(3-phenoxypropionyl)amino]methyl}-N-(2H-tetrazol-5-yl)benzamide] | 1800 nM |
| O=C(O)CCNC(=O)c1ccc(CN(C(=O)Nc2ccc(OC(F)(F)F)cc2)C(=O)Nc2ccc(OC(F)(F)F)cc2)cc1 [Example 383, 3-{4-[1,5-Bis(4-trifluoromethoxyphenyl)-3-biuretmethyl]benzoylamino}propionic acid] | 931 nM |
| CSc1cccc(NC(=O)N(Cc2ccc(C(=O)Nc3nn[nH]n3)cc2)c2ccc(N3CCCCC3)cc2)c1 [Example 317, 4-[3-(3-Methylsulfanylphenyl)-1-(4-piperidin-1-ylphenyl)ureidomethyl]-N-(2H-tetrazol-5-yl)benzamide] | 788 nM |
| CC1CCC(N(Cc2ccc(C(=O)NCCC(=O)O)cc2)C(=O)Nc2ccc(Oc3ccccc3)cc2)CC1 (stereo not drawn) [Example 22, 3-{4-[1-(4-Methylcyclohexyl)-3-(4-phenoxyphenyl)ureidomethyl]benzoylamino}propionic acid] | 1100 nM |
| CC(C)(C)C1CCC(N(Cc2ccc(C(=O)NCCC(=O)O)cc2)C(=O)Nc2ccc(C(F)(F)F)cc2)CC1 (stereo not drawn) [Example 63, 3-{4-[1-(4-tert-Butylcyclohexyl)-3-(4-trifluoromethylphenyl)ureidomethyl]benzoylamino}propionic acid] | 645 nM |
| O=C(O)CCNC(=O)c1ccc(CN(C(=O)c2cc(-c3ccc(Cl)cc3)cs2)c2ccc(C3CCCCC3)cc2)cc1 [Example 560, 3-(4-{[[4-(4-Chlorophenyl)thiophene-2-carbonyl]-(4-cyclohexylphenyl)amino]methyl}benzoylamino)propionic acid] | 1550 nM |
| CC(C)(C)C1CCC(N(Cc2ccc(C(=O)NCCC(=O)O)cc2)C(=O)NCCc2ccccc2)CC1 (stereo not drawn) [Example 27, 3-{4-[1-(4-tert-Butylcyclohexyl)-3-phenethylureidomethyl]benzoylamino}propionic acid] | 2000 nM |
| CCCCc1ccc(N(Cc2ccc(C(=O)Nc3nn[nH]n3)cc2)C(=O)Nc2cccc([N+](=O)[O-])c2)cc1 [Example 288, 4-[1-(4-Butylphenyl)-3-(3-nitrophenyl)ureidomethyl]-N-(2H-tetrazol-5-yl)benzamide] | 75 nM |
| CC(C)(C)c1ccc(N(Cc2ccc(C(=O)Nc3nn[nH]n3)cc2)C(=O)Oc2cc(C(F)(F)F)cc(C(F)(F)F)c2)cc1 [Example 406] | 751 nM |
| CC(C)c1ccc(NC(=O)N(Cc2ccc(C(=O)NCCC(=O)O)cc2)CC(c2ccccc2)c2ccccc2)cc1 [Example 55, 3-{4-[1-(2,2-Diphenylethyl)-3-(4-isopropylphenyl)ureidomethyl]benzoylamino}propionic acid] | 1000 nM |
| O=C(O)CCNC(=O)c1ccc(CN(CC(c2ccccc2)c2ccccc2)C(=O)Cc2ccc(OC(F)(F)F)cc2)cc1 [Example 504, 3-[4-({(2,2-Diphenylethyl)-[2-(4-trifluoromethoxyphenyl)acetyl]amino}methyl)benzoylamino]propionic acid] | 235 nM |

Other lines, results leading:

| IC50 | SMILES |
| --- | --- |
| 75 nM | N#Cc1cccc(NC(=O)N(Cc2ccc(C(=O)Nc3nn[nH]n3)cc2)c2ccc(C3CCCCC3)cc2)c1 [Example 256, 4-[3-(3-Cyanophenyl)-1-(4-cyclohexylphenyl)ureidomethyl]-N-(2H-tetrazol-5-yl)benzamide] |
| 9 nM | O=C(Nc1nn[nH]n1)c1ccc(CN(C(=O)Nc2cc(C(F)(F)F)cc(C(F)(F)F)c2)c2ccc(C3CCCCC3)cc2)cc1 [Example 271, 4-[3-(3,5-Bis-trifluoromethylphenyl)-1-(4-cyclohexylphenyl)ureidomethyl]-N-(2H-tetrazol-5-yl)benzamide] |
| 16 nM | O=C(Nc1nn[nH]n1)c1ccc(CN(C(=O)Nc2cccc(OC(F)(F)F)c2)c2ccc(C3CCCCC3)cc2)cc1 [Example 344, 4-[1-(4-Cyclohexylphenyl)-3-(3-trifluoromethoxyphenyl)ureidomethyl]-N-(2H-tetrazol-5-yl)benzamide] |
| 22 nM | O=C(Nc1nn[nH]n1)c1ccc(CN(C(=O)NCc2ccccc2-c2ccccc2)c2ccc(C3=CCCCC3)cc2)cc1 [Example 353, 4-[3-Biphenyl-2-ylmethyl-1-(4-cyclohex-1-enylphenyl)ureidomethyl]-N-(2H-tetrazol-5-yl)benzamide] |
| 36 nM | COC(=O)c1cc(-c2cccc(NC(=O)N(Cc3ccc(C(=O)NCCC(=O)O)cc3)[C@H]3CC[C@H](C4CCCCC4)CC3)c2)oc1C [Example 392, 5-(3-{3-(trans-4-Cyclohexylcyclohexyl)-3-[4-(2-carboxyethylcarbamoyl)benzyl]ureido}phenyl)-2-methylfuran-3-carboxylic acid methyl ester] |
| 23 nM | CC(C)N1C(=O)c2ccc(NC(=O)N(Cc3ccc(C(=O)NCCC(=O)O)cc3)c3ccc(C4CCCCC4)cc3)cc2C1=O [Example 631, 3-{4-[1-(4-Cyclohexyl-phenyl)-3-(N′-isopropylphthalimid-4-yl)ureidomethyl]benzoylamino}propionic acid] |
| 45 nM | CC(C)N1C(=O)c2ccc(NC(=O)N(Cc3ccc(C(=O)Nc4nn[nH]n4)cc3)C3CCC(C(C)(C)C)CC3)cc2C1=O (stereo not drawn) [Example 629, 4-[1-(4-tert-Butylcyclohexyl)-3-(N′-isopropylphthalimid-5-yl)ureidomethyl]-N-(2H-tetrazol-5-yl)benzamide] |
| 62 nM | CSc1cccc(NC(=O)N(Cc2ccc(C(=O)Nc3nn[nH]n3)cc2)c2ccc(C3CCCCC3)cc2)c1 [Example 302, 4-[1-(4-Cyclohexylphenyl)-3-(3-methylsulfanylphenyl)ureidomethyl]-N-(2H-tetrazol-5-yl)benzamide] |
| 22 nM | CC(c1ccc(C(=O)Nc2nn[nH]n2)cc1)N(C(=O)Nc1ccc(OC(F)(F)F)cc1)c1ccc(C(C)(C)C)cc1 (stereo not drawn) [Example 646, 4-{1-[1-(4-tert-Butylphenyl)-3-(4-trifluoromethoxyphenyl)ureido]ethyl}-N-(2H-tetrazol-5-yl)benzamide] |
